One block for each compound: values may come before it.
System: 889142-216-R-J1-PDC complex spheroid viability
Assay: Anticancer human tumor 889142-216-R-J1-PDC patient-derived bladder carcinoma cell line growth inhibition [POLQ]
Conditions: for IC50: curve of first compound; for viability, T/C: stronger effect = lower value
Procedure, shortened: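 Complex spheroid viability model combining PDC tumour cells with endothelial (HUVEC) and MSC stromal cells. Novobiocin, ART-558 or RP6685 were tested singly and in combination with standard and investigational anticancer drugs. Each was titrated in half-log steps from near clinical Cmax, or from 10 microM where Cmax was unknown.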

[1] = second compound 0.0316 µM, first compound 0.0316 µM
[2] = second compound 0.0316 µM, first compound 0.1 µM
[3] = second compound 0.0316 µM, first compound 0.316 µM
[4] = second compound 0.0316 µM, first compound 1 µM
[5] = second compound 0.1 µM, first compound 0.0316 µM
[6] = second compound 0.1 µM, first compound 0.1 µM
[7] = second compound 0.1 µM, first compound 0.316 µM
[8] = second compound 0.1 µM, first compound 1 µM
[9] = second compound 0.316 µM, first compound 0.0316 µM
[10] = second compound 0.316 µM, first compound 0.1 µM
[11] = second compound 0.316 µM, first compound 0.316 µM
[12] = second compound 0.316 µM, first compound 1 µM
[13] = second compound 1 µM, first compound 0.0316 µM
[14] = second compound 1 µM, first compound 0.1 µM
[15] = second compound 1 µM, first compound 0.316 µM
[16] = second compound 1 µM, first compound 1 µM
[17] = second compound 3.16 µM, first compound 0.0316 µM
[18] = second compound 3.16 µM, first compound 0.1 µM
[19] = second compound 3.16 µM, first compound 0.316 µM
[20] = second compound 3.16 µM, first compound 1 µM
[21] = second compound 10 µM, first compound 0.0316 µM
[22] = second compound 10 µM, first compound 0.1 µM
[23] = second compound 10 µM, first compound 0.316 µM
[24] = second compound 10 µM, first compound 1 µM
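Note: spheroids exposed to compounds for seven days.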
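Throughout, for viability, T/C: 100% = DMSO vehicle control viability.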

IC50 (second compound 0.0316 µM): 0.0195 µM
IC50 (second compound 0.1 µM): 0.016 µM
IC50 (second compound 0.316 µM): 0.0133 µM
IC50 (second compound 1 µM): 0.0126 µM
IC50 (second compound 3.16 µM): 0.0224 µM
IC50 (second compound 10 µM): 0.0117 µM
Structure (SMILES): CCc1c2c(nc3ccc(O)cc13)-c1cc3c(c(=O)n1C2)COC(=O)[C@]3(O)CC + Nc1ccc(C#CCN(C(=O)Cc2ncc(C(F)(F)F)cc2C(F)(F)F)c2ccc(F)cc2)nn1
viability, T/C (second compound 0.0316 µM, first compound 0.00316 µM): 63.1%
viability, T/C (second compound 0.0316 µM, first compound 0.01 µM): 61.6%
viability, T/C [1]: 41.2%
viability, T/C [2]: 32.9%
viability, T/C [3]: 25.2%
viability, T/C [4]: 9.02%
viability, T/C (second compound 0.1 µM, first compound 0.00316 µM): 61.2%
viability, T/C (second compound 0.1 µM, first compound 0.01 µM): 51.1%
viability, T/C [5]: 44.6%
viability, T/C [6]: 34.8%
viability, T/C [7]: 30.4%
viability, T/C [8]: 8.83%
viability, T/C (second compound 0.316 µM, first compound 0.00316 µM): 66.6%
viability, T/C (second compound 0.316 µM, first compound 0.01 µM): 50%
viability, T/C [9]: 38.6%
viability, T/C [10]: 34%
viability, T/C [11]: 23.9%
viability, T/C [12]: 11.5%
viability, T/C (second compound 1 µM, first compound 0.00316 µM): 70%
viability, T/C (second compound 1 µM, first compound 0.01 µM): 46.6%
viability, T/C [13]: 41.3%
viability, T/C [14]: 30.5%
viability, T/C [15]: 23.4%
viability, T/C [16]: 11.2%
viability, T/C (second compound 3.16 µM, first compound 0.00316 µM): 59.3%
viability, T/C (second compound 3.16 µM, first compound 0.01 µM): 65.6%
viability, T/C [17]: 39.4%
viability, T/C [18]: 35.8%
viability, T/C [19]: 30.9%
viability, T/C [20]: 8.37%
viability, T/C (second compound 10 µM, first compound 0.00316 µM): 57.4%
viability, T/C (second compound 10 µM, first compound 0.01 µM): 52.2%
viability, T/C [21]: 41%
viability, T/C [22]: 31.6%
viability, T/C [23]: 28.3%
viability, T/C [24]: 6.89%

Structure (SMILES): COc1ccc([C@@H](O)c2cc(-c3ncnc4cc(N5CCOCC5)ccc34)c(F)cc2Cl)nn1 + Nc1ccc(C#CCN(C(=O)Cc2ncc(C(F)(F)F)cc2C(F)(F)F)c2ccc(F)cc2)nn1
IC50 (second compound 0.0316 µM): 3.14 µM
IC50 (second compound 0.1 µM): 5.02 µM
IC50 (second compound 0.316 µM): 4.55 µM
IC50 (second compound 1 µM): 5.06 µM
IC50 (second compound 3.16 µM): 5.83 µM
IC50 (second compound 10 µM): 6.74 µM
viability, T/C [1]: 84.6%
viability, T/C [2]: 80.6%
viability, T/C [3]: 81.5%
viability, T/C [4]: 87.8%
viability, T/C (second compound 0.0316 µM, first compound 3.16 µM): 49.8%
viability, T/C (second compound 0.0316 µM, first compound 10 µM): 35.2%
viability, T/C [5]: 113%
viability, T/C [6]: 77.5%
viability, T/C [7]: 80%
viability, T/C [8]: 73.4%
viability, T/C (second compound 0.1 µM, first compound 3.16 µM): 56.8%
viability, T/C (second compound 0.1 µM, first compound 10 µM): 39.5%
viability, T/C [9]: 87.5%
viability, T/C [10]: 95%
viability, T/C [11]: 72.9%
viability, T/C [12]: 72.8%
viability, T/C (second compound 0.316 µM, first compound 3.16 µM): 54%
viability, T/C (second compound 0.316 µM, first compound 10 µM): 39.6%
viability, T/C [13]: 86.2%
viability, T/C [14]: 72.1%
viability, T/C [15]: 72.4%
viability, T/C [16]: 65.9%
viability, T/C (second compound 1 µM, first compound 3.16 µM): 62.2%
viability, T/C (second compound 1 µM, first compound 10 µM): 37.8%
viability, T/C [17]: 74.3%
viability, T/C [18]: 65.4%
viability, T/C [19]: 73.8%
viability, T/C [20]: 65.2%
viability, T/C (second compound 3.16 µM, first compound 3.16 µM): 63.2%
viability, T/C (second compound 3.16 µM, first compound 10 µM): 39.3%
viability, T/C [21]: 105%
viability, T/C [22]: 77.9%
viability, T/C [23]: 96.7%
viability, T/C [24]: 60.1%
viability, T/C (second compound 10 µM, first compound 3.16 µM): 56.6%
viability, T/C (second compound 10 µM, first compound 10 µM): 47.5%
